# Measured values published in doi:10.1101/2025.06.19.660642, “Discovery of orally bioavailable Zika and West Nile Virus antiviral compounds targeting the NS2B-NS3 protease” (bioRxiv, 2025).
# Target: T1, ZIKV NS2B-NS3 protease (Zika virus, UniProt A0A024B7W1)
# T1 construct: directed at the co-expressed ZIKV NS2B-NS3 protease
# Test: ZIKV NS2B-NS3 protease biochemical FRET assay
# Details: ZIKV NS2B-NS3 Ki (uM), library 1, supplement
# T1 sequence (A0A024B7W1 1503-1680): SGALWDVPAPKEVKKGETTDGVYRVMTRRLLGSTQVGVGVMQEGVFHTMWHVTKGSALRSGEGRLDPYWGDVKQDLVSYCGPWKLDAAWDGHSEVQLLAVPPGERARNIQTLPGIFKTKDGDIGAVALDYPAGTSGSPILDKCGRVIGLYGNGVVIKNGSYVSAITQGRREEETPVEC
# T1 sequence (A0A024B7W1 1425-1464): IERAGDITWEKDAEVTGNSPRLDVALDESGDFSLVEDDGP
row,Compound,Ki
1,"CN1CCc2nc(NC(=O)c3cc(Cl)cc(NC(=O)OCc4ccccc4)c3)sc2C1 [ASAP-0020935, CN1CCc2nc(NC(=O)c3cc(Cl)cc(NC(=O)OCc4ccccc4)c3)sc2C1]",> 89.3 µM
2,"O=C(Nc1cc(Cl)cc(C(=O)Nc2ncc3n2CCNC3)c1)OCc1ccccc1 [ASAP-0020975, O=C(Nc1cc(Cl)cc(C(=O)Nc2ncc3n2CCNC3)c1)OCc1ccccc1]",> 89.3 µM
3,"O=C(Nc1cc(Cl)cc(C(=O)Nc2cc3n(n2)CCNC3)c1)OCc1ccccc1 [ASAP-0020976, O=C(Nc1cc(Cl)cc(C(=O)Nc2cc3n(n2)CCNC3)c1)OCc1ccccc1]",> 89.3 µM
4,"O=C(Nc1cc(Cl)cc(C(=O)Nc2cnc3n2CCNC3)c1)OCc1ccccc1 [ASAP-0021001, O=C(Nc1cc(Cl)cc(C(=O)Nc2cnc3n2CCNC3)c1)OCc1ccccc1]",> 89.3 µM
5,"O=C(Nc1cc(Cl)cc(C(=O)Nc2nc3c(s2)CNC3)c1)OCc1ccccc1 [ASAP-0021026, O=C(Nc1cc(Cl)cc(C(=O)Nc2nc3c(s2)CNC3)c1)OCc1ccccc1]",76.9 µM
6,"O=C(Nc1cc(Cl)cc(C(=O)Nc2n[nH]c3c2CNC32CC2)c1)OCc1ccccc1 [ASAP-0021028, O=C(Nc1cc(Cl)cc(C(=O)Nc2n[nH]c3c2CNC32CC2)c1)OCc1ccccc1]",> 89.3 µM
7,"O=C(Nc1cc(Cl)cc(C(=O)Nc2nc3c(s2)CCNC3)c1)OCc1ccccc1 [ASAP-0021029, O=C(Nc1cc(Cl)cc(C(=O)Nc2nc3c(s2)CCNC3)c1)OCc1ccccc1]",48 µM
8,"Cn1nc(NC(=O)c2cc(Cl)cc(NC(=O)OCc3ccccc3)c2)c2c1CNC2 [ASAP-0021036, Cn1nc(NC(=O)c2cc(Cl)cc(NC(=O)OCc3ccccc3)c2)c2c1CNC2]",> 89.3 µM
9,"O=C(Nc1cc(Cl)cc(C(=O)Nc2n[nH]c3c2CNC3)c1)OCc1ccccc1 [ASAP-0021061, O=C(Nc1cc(Cl)cc(C(=O)Nc2n[nH]c3c2CNC3)c1)OCc1ccccc1]",36.1 µM
10,"NCc1cn(CCNC(=O)c2cc(Cl)cc(NC(=O)OCc3ccccc3)c2)nn1 [ASAP-0021085, NCc1cn(CCNC(=O)c2cc(Cl)cc(NC(=O)OCc3ccccc3)c2)nn1]",> 89.3 µM
11,"C[C@H](N)c1cccc(NC(=O)c2cc(Cl)cc(NC(=O)OCc3ccccc3)c2)c1 [ASAP-0021091, C[C@H](N)c1cccc(NC(=O)c2cc(Cl)cc(NC(=O)OCc3ccccc3)c2)c1]",12.3 µM
12,"O=C(Nc1cc(Cl)cc(C(=O)NCC2(CO)CCNCC2)c1)OCc1ccccc1 [ASAP-0021096, O=C(Nc1cc(Cl)cc(C(=O)NCC2(CO)CCNCC2)c1)OCc1ccccc1]",> 89.3 µM
13,"NCc1nc(CNC(=O)c2cc(Cl)cc(NC(=O)OCc3ccccc3)c2)cs1 [ASAP-0021116, NCc1nc(CNC(=O)c2cc(Cl)cc(NC(=O)OCc3ccccc3)c2)cs1]",> 89.3 µM
14,"Cc1c(CN)cccc1NC(=O)c1cc(Cl)cc(NC(=O)OCc2ccccc2)c1 [ASAP-0021118, Cc1c(CN)cccc1NC(=O)c1cc(Cl)cc(NC(=O)OCc2ccccc2)c1]",40.1 µM
15,"Cc1ccc(NC(=O)c2cc(Cl)cc(NC(=O)OCc3ccccc3)c2)cc1CN [ASAP-0021119, Cc1ccc(NC(=O)c2cc(Cl)cc(NC(=O)OCc3ccccc3)c2)cc1CN]",9.81 µM
16,"NC12CCC(CNC(=O)c3cc(Cl)cc(NC(=O)OCc4ccccc4)c3)(CC1)OC2 [ASAP-0021132, NC12CCC(CNC(=O)c3cc(Cl)cc(NC(=O)OCc4ccccc4)c3)(CC1)OC2]",29.7 µM
17,"NCc1ccc(O)c(NC(=O)c2cc(Cl)cc(NC(=O)OCc3ccccc3)c2)c1 [ASAP-0021142, NCc1ccc(O)c(NC(=O)c2cc(Cl)cc(NC(=O)OCc3ccccc3)c2)c1]",16.3 µM
18,"NCCc1nsc(NC(=O)c2cc(Cl)cc(NC(=O)OCc3ccccc3)c2)n1 [ASAP-0021153, NCCc1nsc(NC(=O)c2cc(Cl)cc(NC(=O)OCc3ccccc3)c2)n1]",> 89.3 µM
19,"Cn1nc(CCN)nc1NC(=O)c1cc(Cl)cc(NC(=O)OCc2ccccc2)c1 [ASAP-0021177, Cn1nc(CCN)nc1NC(=O)c1cc(Cl)cc(NC(=O)OCc2ccccc2)c1]",28.1 µM

row,Compound,Ki
1,"O=C(Nc1cc(Cl)cc(C(=O)Nc2cccc3c2CNC3)c1)OCc1ccccc1 [ASAP-0021189, O=C(Nc1cc(Cl)cc(C(=O)Nc2cccc3c2CNC3)c1)OCc1ccccc1]",67.8 µM
2,"Cc1cc(CN)cc(NC(=O)c2cc(Cl)cc(NC(=O)OCc3ccccc3)c2)c1 [ASAP-0021201, Cc1cc(CN)cc(NC(=O)c2cc(Cl)cc(NC(=O)OCc3ccccc3)c2)c1]",4.63 µM
3,"NCCCc1ccnc(NC(=O)c2cc(Cl)cc(NC(=O)OCc3ccccc3)c2)c1 [ASAP-0021210, NCCCc1ccnc(NC(=O)c2cc(Cl)cc(NC(=O)OCc3ccccc3)c2)c1]",16.5 µM
4,"CN(C)Cc1csc(NC(=O)c2cc(Cl)cc(NC(=O)OCc3ccccc3)c2)n1 [ASAP-0021243, CN(C)Cc1csc(NC(=O)c2cc(Cl)cc(NC(=O)OCc3ccccc3)c2)n1]",> 89.3 µM
5,"O=C(Nc1cc(Cl)cc(C(=O)NCc2n[nH]c3c2CNCC3)c1)OCc1ccccc1 [ASAP-0021271, O=C(Nc1cc(Cl)cc(C(=O)NCc2n[nH]c3c2CNCC3)c1)OCc1ccccc1]",> 89.3 µM
6,"Cn1nc2c(c1NC(=O)c1cc(Cl)cc(NC(=O)OCc3ccccc3)c1)CNCC2 [ASAP-0021291, Cn1nc2c(c1NC(=O)c1cc(Cl)cc(NC(=O)OCc3ccccc3)c1)CNCC2]",19.7 µM
7,"NCCCc1ccc(F)c(NC(=O)c2cc(Cl)cc(NC(=O)OCc3ccccc3)c2)c1 [ASAP-0021296, NCCCc1ccc(F)c(NC(=O)c2cc(Cl)cc(NC(=O)OCc3ccccc3)c2)c1]",5.63 µM
8,"Cn1nc2c(c1NC(=O)c1cc(Cl)cc(NC(=O)OCc3ccccc3)c1)CCNC2 [ASAP-0021390, Cn1nc2c(c1NC(=O)c1cc(Cl)cc(NC(=O)OCc3ccccc3)c1)CCNC2]",> 89.3 µM
9,"NC[C@]1(F)C[C@@H](NC(=O)c2cc(Cl)cc(NC(=O)OCc3ccccc3)c2)C1 [ASAP-0021480, NC[C@]1(F)C[C@@H](NC(=O)c2cc(Cl)cc(NC(=O)OCc3ccccc3)c2)C1]",61.6 µM
10,"O=C(Nc1cc(Cl)cc(C(=O)Nc2ccc3c(c2)CNCCO3)c1)OCc1ccccc1 [ASAP-0021552, O=C(Nc1cc(Cl)cc(C(=O)Nc2ccc3c(c2)CNCCO3)c1)OCc1ccccc1]",6.9 µM
11,"O=C(Nc1cc(Cl)cc(C(=O)Nc2nccn2C2CNC2)c1)OCc1ccccc1 [ASAP-0021559, O=C(Nc1cc(Cl)cc(C(=O)Nc2nccn2C2CNC2)c1)OCc1ccccc1]",> 89.3 µM
12,"O=C(Nc1cc(Cl)cc(C(=O)Nc2ncc(C3CNC3)s2)c1)OCc1ccccc1 [ASAP-0021562, O=C(NC1=CC(Cl)=CC(C(=O)NC2=NC=C(C3CNC3)S2)=C1)OCC1=CC=CC=C1]",> 89.3 µM
13,"O=C(Nc1cc(Cl)cc(C(=O)Nc2ccnc(OC3CNC3)c2)c1)OCc1ccccc1 [ASAP-0021594, O=C(Nc1cc(Cl)cc(C(=O)Nc2ccnc(OC3CNC3)c2)c1)OCc1ccccc1]",59.3 µM
14,"NCC12CC(NC(=O)c3cc(Cl)cc(NC(=O)OCc4ccccc4)c3)(CCO1)C2 [ASAP-0021607, NCC12CC(NC(=O)c3cc(Cl)cc(NC(=O)OCc4ccccc4)c3)(CCO1)C2]",> 89.3 µM
15,"CNCc1cccc(NC(=O)c2cc(Cl)cc(NC(=O)OCc3ccccc3)c2)c1 [ASAP-0021616, CNCc1cccc(NC(=O)c2cc(Cl)cc(NC(=O)OCc3ccccc3)c2)c1]",17.6 µM
16,"C[C@@H](N)c1cccc(NC(=O)c2cc(Cl)cc(NC(=O)OCc3ccccc3)c2)c1 [ASAP-0021650, C[C@@H](N)c1cccc(NC(=O)c2cc(Cl)cc(NC(=O)OCc3ccccc3)c2)c1]",20.4 µM
17,"NCc1cc(F)cc(NC(=O)c2cc(Cl)cc(NC(=O)OCc3ccccc3)c2)c1 [ASAP-0021659, NCc1cc(F)cc(NC(=O)c2cc(Cl)cc(NC(=O)OCc3ccccc3)c2)c1]",5.26 µM
18,"NCc1ccc(CNC(=O)c2cc(Cl)cc(NC(=O)OCc3ccccc3)c2)c(F)c1 [ASAP-0021676, NCc1ccc(CNC(=O)c2cc(Cl)cc(NC(=O)OCc3ccccc3)c2)c(F)c1]",29.5 µM

# Same assay, conditions: ZIKV NS2B-NS3 pKi, library 1, supplement
row,Compound,Ki
1,"NCCCc1cccc(NC(=O)c2cc(Cl)cc(NC(=O)OCc3ccccc3)c2)n1 [ASAP-0021169, NCCCc1cccc(NC(=O)c2cc(Cl)cc(NC(=O)OCc3ccccc3)c2)n1]",17 µM
2,"NCc1ccc(F)c(NC(=O)c2cc(Cl)cc(NC(=O)OCc3ccccc3)c2)c1 [ASAP-0021403, NCc1ccc(F)c(NC(=O)c2cc(Cl)cc(NC(=O)OCc3ccccc3)c2)c1]",3.89 µM

# Same assay, conditions: library 1, supplement
row,Compound,ZIKV NS2B-NS3 pKi
1,"O=C(Nc1cc(Cl)cc(C(=O)NC[C@@H]2CCNC3(CC3)C2)c1)OCc1ccccc1 [ASAP-0021400, O=C(Nc1cc(Cl)cc(C(=O)NC[C@@H]2CCNC3(CC3)C2)c1)OCc1ccccc1 ¦&1:13¦]",< 4.05
2,"O=C(Nc1cc(Cl)cc(C(=O)NC[C@H]2CNC3(CC3)CO2)c1)OCc1ccccc1 [ASAP-0021445, O=C(Nc1cc(Cl)cc(C(=O)NC[C@H]2CNC3(CC3)CO2)c1)OCc1ccccc1 ¦&1:13¦]",< 4.05
3,"O=C(Nc1cc(Cl)cc(C(=O)NC2([C@H]3CCNC3)CC2)c1)OCc1ccccc1 [ASAP-0021452, O=C(Nc1cc(Cl)cc(C(=O)NC2([C@H]3CCNC3)CC2)c1)OCc1ccccc1 ¦&1:13¦]",< 4.05
4,"C=CC[C@@]1(NC(=O)c2cc(Cl)cc(NC(=O)OCc3ccccc3)c2)CCNC1 [ASAP-0021490, C=CC[C@@]1(NC(=O)c2cc(Cl)cc(NC(=O)OCc3ccccc3)c2)CCNC1 ¦&1:3¦]",< 4.05
5,"O=C(Nc1cc(Cl)cc(C(=O)NC[C@@H]2CNCCC2(F)F)c1)OCc1ccccc1 [ASAP-0021511, O=C(Nc1cc(Cl)cc(C(=O)NC[C@@H]2CNCCC2(F)F)c1)OCc1ccccc1 ¦&1:13¦]",< 4.05
6,"O=C(Nc1cc(Cl)cc(C(=O)NC[C@@H]2CC3(CNC3)CO2)c1)OCc1ccccc1 [ASAP-0021589, O=C(Nc1cc(Cl)cc(C(=O)NC[C@@H]2CC3(CNC3)CO2)c1)OCc1ccccc1 ¦&1:13¦]",4.38
7,"C[C@]1(CNC(=O)c2cc(Cl)cc(NC(=O)OCc3ccccc3)c2)CNCCOC1 [ASAP-0021641, C[C@]1(CNC(=O)c2cc(Cl)cc(NC(=O)OCc3ccccc3)c2)CNCCOC1 ¦&1:1¦]",< 4.05
8,"NC[C@H]1C[C@@H](CNC(=O)c2cc(Cl)cc(NC(=O)OCc3ccccc3)c2)CCO1 [ASAP-0021664, NC[C@H]1C[C@@H](CNC(=O)c2cc(Cl)cc(NC(=O)OCc3ccccc3)c2)CCO1 ¦&1:2,&2:4¦]",< 4.05

# Same assay, conditions: library 1, supplement; read-out: ZIKV NS2B-NS3 Ki
row,Compound,Ki
1,"O=C(Nc1cc(Cl)cc(C(=O)NC[C@@H]2CCNC3(CC3)C2)c1)OCc1ccccc1 [ASAP-0021400, O=C(Nc1cc(Cl)cc(C(=O)NC[C@@H]2CCNC3(CC3)C2)c1)OCc1ccccc1 ¦&1:13¦]",> 89.3 µM
2,"O=C(Nc1cc(Cl)cc(C(=O)NC[C@H]2CNC3(CC3)CO2)c1)OCc1ccccc1 [ASAP-0021445, O=C(Nc1cc(Cl)cc(C(=O)NC[C@H]2CNC3(CC3)CO2)c1)OCc1ccccc1 ¦&1:13¦]",> 89.3 µM
3,"O=C(Nc1cc(Cl)cc(C(=O)NC2([C@H]3CCNC3)CC2)c1)OCc1ccccc1 [ASAP-0021452, O=C(Nc1cc(Cl)cc(C(=O)NC2([C@H]3CCNC3)CC2)c1)OCc1ccccc1 ¦&1:13¦]",> 89.3 µM
4,"C=CC[C@@]1(NC(=O)c2cc(Cl)cc(NC(=O)OCc3ccccc3)c2)CCNC1 [ASAP-0021490, C=CC[C@@]1(NC(=O)c2cc(Cl)cc(NC(=O)OCc3ccccc3)c2)CCNC1 ¦&1:3¦]",> 89.3 µM
5,"O=C(Nc1cc(Cl)cc(C(=O)NC[C@@H]2CNCCC2(F)F)c1)OCc1ccccc1 [ASAP-0021511, O=C(Nc1cc(Cl)cc(C(=O)NC[C@@H]2CNCCC2(F)F)c1)OCc1ccccc1 ¦&1:13¦]",> 89.3 µM
6,"O=C(Nc1cc(Cl)cc(C(=O)NC[C@@H]2CC3(CNC3)CO2)c1)OCc1ccccc1 [ASAP-0021589, O=C(Nc1cc(Cl)cc(C(=O)NC[C@@H]2CC3(CNC3)CO2)c1)OCc1ccccc1 ¦&1:13¦]",41.3 µM
7,"C[C@]1(CNC(=O)c2cc(Cl)cc(NC(=O)OCc3ccccc3)c2)CNCCOC1 [ASAP-0021641, C[C@]1(CNC(=O)c2cc(Cl)cc(NC(=O)OCc3ccccc3)c2)CNCCOC1 ¦&1:1¦]",> 89.3 µM
8,"NC[C@H]1C[C@@H](CNC(=O)c2cc(Cl)cc(NC(=O)OCc3ccccc3)c2)CCO1 [ASAP-0021664, NC[C@H]1C[C@@H](CNC(=O)c2cc(Cl)cc(NC(=O)OCc3ccccc3)c2)CCO1 ¦&1:2,&2:4¦]",> 89.3 µM
